Legend:
Assay in all cases: relative viability vs DMSO control (72 h) (fraction); higher = more viable cells
G401 = test system: G401
Method in brief: (§1)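 Sarcoma cell lines were seeded in 384-well plates at densities chosen for 80–90% confluence, then 24 h later given 2.5 µl of serially diluted compound drawn from source plates spanning 10 mM to 0.0002 mM. They were held 72 h at 37 °C, 5% CO2, with 0.1% DMSO vehicle and a 5 µM positive control included. Relative viability was read with ATPLite as percent growth and averaged over up to triplicate wells. Rescaling placed full at 1 and none at 0.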

KHOS-240S = test system: KHOS-240S
Method in brief: as §1

SW1353 = test system: SW1353
Method in brief: as §1

SYO-1 = test system: SYO-1
Method in brief: as §1

SW982 = test system: SW982
Method in brief: as §1

HT1080 = test system: HT1080
Method in brief: as §1

KHOS-NP = test system: KHOS-NP
Method in brief: as §1

SW872 = test system: SW872
Method in brief: as §1

SW684 = test system: SW684
Method in brief: as §1

RD-ES = test system: RD-ES
Method in brief: as §1

A204 = test system: A204
Method in brief: as §1

SK-ES-1 = test system: SK-ES-1
Method in brief: as §1

Cc1[nH]c(/C=C2\C(=O)Nc3ccccc32)c(C)c1CCC(=O)O [Orantinib]
Settings	relative viability
A204, 0.00017 µM	1.07
A204, 0.00051 µM	1.12
A204, 0.00152 µM	1.12
A204, 0.00457 µM	1.09
A204, 0.01372 µM	1.14
A204, 0.04115 µM	1.086
A204, 0.1235 µM	1.13
A204, 0.3704 µM	1.05
A204, 1.111 µM	1.03
A204, 3.333 µM	0.976
A204, 10 µM	0.881
G401, 0.00017 µM	1.07
G401, 0.00051 µM	1.11
G401, 0.00152 µM	1.07
G401, 0.00457 µM	1.08
G401, 0.01372 µM	1.07
G401, 0.04115 µM	1.04
G401, 0.1235 µM	1.057
G401, 0.3704 µM	1.06
G401, 1.111 µM	1.05
G401, 3.333 µM	1.058
G401, 10 µM	0.966
HT1080, 0.00017 µM	1.09
HT1080, 0.00051 µM	1.1
HT1080, 0.00152 µM	1.13
HT1080, 0.00457 µM	1.11
HT1080, 0.01372 µM	1.08
HT1080, 0.04115 µM	1.07
HT1080, 0.1235 µM	1.11
HT1080, 0.3704 µM	1.09
HT1080, 1.111 µM	1.05
HT1080, 3.333 µM	0.991
HT1080, 10 µM	0.947
KHOS-240S, 0.00017 µM	1.04
KHOS-240S, 0.00051 µM	1.07
KHOS-240S, 0.00152 µM	1.087
KHOS-240S, 0.00457 µM	1.06
KHOS-240S, 0.01372 µM	1.05
KHOS-240S, 0.04115 µM	1.065
KHOS-240S, 0.1235 µM	1.08
KHOS-240S, 0.3704 µM	1.09
KHOS-240S, 1.111 µM	1.03
KHOS-240S, 3.333 µM	1.06
KHOS-240S, 10 µM	0.963
KHOS-NP, 0.00017 µM	1.088
KHOS-NP, 0.00051 µM	1.122
KHOS-NP, 0.00152 µM	1.12
KHOS-NP, 0.00457 µM	1.12
KHOS-NP, 0.01372 µM	1.11
KHOS-NP, 0.04115 µM	1.11
KHOS-NP, 0.1235 µM	1.11
KHOS-NP, 0.3704 µM	1.1
KHOS-NP, 1.111 µM	1.09
KHOS-NP, 3.333 µM	1.1
KHOS-NP, 10 µM	1.08
RD-ES, 0.00017 µM	1.02
RD-ES, 0.00051 µM	0.9951
RD-ES, 0.00152 µM	1.01
RD-ES, 0.00457 µM	1.03
RD-ES, 0.01372 µM	1.03
RD-ES, 0.04115 µM	1.02
RD-ES, 0.1235 µM	1.01
RD-ES, 0.3704 µM	1
RD-ES, 1.111 µM	0.977
RD-ES, 3.333 µM	0.983
RD-ES, 10 µM	0.932
SK-ES-1, 0.00017 µM	1.05
SK-ES-1, 0.00051 µM	1.06
SK-ES-1, 0.00152 µM	1.06
SK-ES-1, 0.00457 µM	1.04
SK-ES-1, 0.01372 µM	1.04
SK-ES-1, 0.04115 µM	1.06
SK-ES-1, 0.1235 µM	1.02
SK-ES-1, 0.3704 µM	1.06
SK-ES-1, 1.111 µM	0.999
SK-ES-1, 3.333 µM	0.982
SK-ES-1, 10 µM	0.998
SW684, 0.00017 µM	1.19
SW684, 0.00051 µM	1.19
SW684, 0.00152 µM	1.23
SW684, 0.00457 µM	1.23
SW684, 0.01372 µM	1.18
SW684, 0.04115 µM	1.18
SW684, 0.1235 µM	1.19
SW684, 0.3704 µM	1.16
SW684, 1.111 µM	1.12
SW684, 3.333 µM	1.05
SW684, 10 µM	0.967
SW872, 0.00017 µM	1.1
SW872, 0.00051 µM	1.12
SW872, 0.00152 µM	1.09
SW872, 0.00457 µM	1.1
SW872, 0.01372 µM	1.09
SW872, 0.04115 µM	1.08
SW872, 0.1235 µM	1.06
SW872, 0.3704 µM	1.04
SW872, 1.111 µM	1.08
SW872, 3.333 µM	1.05
SW872, 10 µM	1.013
SW982, 0.00017 µM	1.06
SW982, 0.00051 µM	1.11
SW982, 0.00152 µM	1.1
SW982, 0.00457 µM	1.1
SW982, 0.01372 µM	1.09
SW982, 0.04115 µM	1.1
SW982, 0.1235 µM	1.08
SW982, 0.3704 µM	1.044
SW982, 1.111 µM	1.01
SW982, 3.333 µM	0.935
SW982, 10 µM	0.931
SW1353, 0.00017 µM	1.08
SW1353, 0.00051 µM	1.06
SW1353, 0.00152 µM	1.087
SW1353, 0.00457 µM	1.08
SW1353, 0.01372 µM	1.05
SW1353, 0.04115 µM	1.07
SW1353, 0.1235 µM	1.04
SW1353, 0.3704 µM	1.026
SW1353, 1.111 µM	1
SW1353, 3.333 µM	0.963
SW1353, 10 µM	0.951
SYO-1, 0.00017 µM	1.012
SYO-1, 0.00051 µM	1.01
SYO-1, 0.00152 µM	1.02
SYO-1, 0.00457 µM	1.02
SYO-1, 0.01372 µM	1.01
SYO-1, 0.04115 µM	1.03
SYO-1, 0.1235 µM	0.997
SYO-1, 0.3704 µM	0.979
SYO-1, 1.111 µM	0.973
SYO-1, 3.333 µM	0.945
SYO-1, 10 µM	0.799
